Assay results reported in patent US6953801B2, “Melanin concentrating hormone receptor ligands: substituted 1-benzyl-4-aryl piperazine analogues” (Neurogen Corporation, priority 2001, dated 2005).

melting point: 172 to 176 °C
SMILES: COc1cc(N2CCN([C@H](C)c3ccc(OC)c(OC)c3)CC2)ccc1Cl [compound 4, (R)-1-(4-Chloro-3-Methoxy-Phenyl)-4-[1-(3,4-Dimethoxy-Phenyl)-Ethyl]-Piperazine]
